Broadly, the EC50 is the concentration that produces a half-maximal response. A higher EC50 goes with a need for much substance. As usually defined, the IC50 is the concentration at which inhibition is half-maximal. Low values mean higher potency, high ones lower potency.

Here are results for 33 compounds from patent US20230135152A1 (ACURASTEM INCORPORATED, priority 2020, published 2023).

The target of assay [1] is T1, PIKFYVE (Homo sapiens, UniProt Q9Y2I7). Nature of the assay: Cell-based Pikfyve inhibition activity assay (EEA1 staining, mean vesicle size in BJ fibroblast cells). The settings on record: Table 4, 4 hours treatment, 3 μM Apilimod = 100% inhibition. The method in brief: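 BJ fibroblasts treated 4 h at 37° C with eleven 3-fold doses (0.03-3000 nM), then fixed and stained for EEA1. Confocal images (20×, 16 tiles/well) analysed for mean vesicle size. Normalised to 0.5% DMSO (0%) and 3 μM apilimod (100%); dose-response fitted with variable slope.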
T1 sequence (Q9Y2I7 whole entry): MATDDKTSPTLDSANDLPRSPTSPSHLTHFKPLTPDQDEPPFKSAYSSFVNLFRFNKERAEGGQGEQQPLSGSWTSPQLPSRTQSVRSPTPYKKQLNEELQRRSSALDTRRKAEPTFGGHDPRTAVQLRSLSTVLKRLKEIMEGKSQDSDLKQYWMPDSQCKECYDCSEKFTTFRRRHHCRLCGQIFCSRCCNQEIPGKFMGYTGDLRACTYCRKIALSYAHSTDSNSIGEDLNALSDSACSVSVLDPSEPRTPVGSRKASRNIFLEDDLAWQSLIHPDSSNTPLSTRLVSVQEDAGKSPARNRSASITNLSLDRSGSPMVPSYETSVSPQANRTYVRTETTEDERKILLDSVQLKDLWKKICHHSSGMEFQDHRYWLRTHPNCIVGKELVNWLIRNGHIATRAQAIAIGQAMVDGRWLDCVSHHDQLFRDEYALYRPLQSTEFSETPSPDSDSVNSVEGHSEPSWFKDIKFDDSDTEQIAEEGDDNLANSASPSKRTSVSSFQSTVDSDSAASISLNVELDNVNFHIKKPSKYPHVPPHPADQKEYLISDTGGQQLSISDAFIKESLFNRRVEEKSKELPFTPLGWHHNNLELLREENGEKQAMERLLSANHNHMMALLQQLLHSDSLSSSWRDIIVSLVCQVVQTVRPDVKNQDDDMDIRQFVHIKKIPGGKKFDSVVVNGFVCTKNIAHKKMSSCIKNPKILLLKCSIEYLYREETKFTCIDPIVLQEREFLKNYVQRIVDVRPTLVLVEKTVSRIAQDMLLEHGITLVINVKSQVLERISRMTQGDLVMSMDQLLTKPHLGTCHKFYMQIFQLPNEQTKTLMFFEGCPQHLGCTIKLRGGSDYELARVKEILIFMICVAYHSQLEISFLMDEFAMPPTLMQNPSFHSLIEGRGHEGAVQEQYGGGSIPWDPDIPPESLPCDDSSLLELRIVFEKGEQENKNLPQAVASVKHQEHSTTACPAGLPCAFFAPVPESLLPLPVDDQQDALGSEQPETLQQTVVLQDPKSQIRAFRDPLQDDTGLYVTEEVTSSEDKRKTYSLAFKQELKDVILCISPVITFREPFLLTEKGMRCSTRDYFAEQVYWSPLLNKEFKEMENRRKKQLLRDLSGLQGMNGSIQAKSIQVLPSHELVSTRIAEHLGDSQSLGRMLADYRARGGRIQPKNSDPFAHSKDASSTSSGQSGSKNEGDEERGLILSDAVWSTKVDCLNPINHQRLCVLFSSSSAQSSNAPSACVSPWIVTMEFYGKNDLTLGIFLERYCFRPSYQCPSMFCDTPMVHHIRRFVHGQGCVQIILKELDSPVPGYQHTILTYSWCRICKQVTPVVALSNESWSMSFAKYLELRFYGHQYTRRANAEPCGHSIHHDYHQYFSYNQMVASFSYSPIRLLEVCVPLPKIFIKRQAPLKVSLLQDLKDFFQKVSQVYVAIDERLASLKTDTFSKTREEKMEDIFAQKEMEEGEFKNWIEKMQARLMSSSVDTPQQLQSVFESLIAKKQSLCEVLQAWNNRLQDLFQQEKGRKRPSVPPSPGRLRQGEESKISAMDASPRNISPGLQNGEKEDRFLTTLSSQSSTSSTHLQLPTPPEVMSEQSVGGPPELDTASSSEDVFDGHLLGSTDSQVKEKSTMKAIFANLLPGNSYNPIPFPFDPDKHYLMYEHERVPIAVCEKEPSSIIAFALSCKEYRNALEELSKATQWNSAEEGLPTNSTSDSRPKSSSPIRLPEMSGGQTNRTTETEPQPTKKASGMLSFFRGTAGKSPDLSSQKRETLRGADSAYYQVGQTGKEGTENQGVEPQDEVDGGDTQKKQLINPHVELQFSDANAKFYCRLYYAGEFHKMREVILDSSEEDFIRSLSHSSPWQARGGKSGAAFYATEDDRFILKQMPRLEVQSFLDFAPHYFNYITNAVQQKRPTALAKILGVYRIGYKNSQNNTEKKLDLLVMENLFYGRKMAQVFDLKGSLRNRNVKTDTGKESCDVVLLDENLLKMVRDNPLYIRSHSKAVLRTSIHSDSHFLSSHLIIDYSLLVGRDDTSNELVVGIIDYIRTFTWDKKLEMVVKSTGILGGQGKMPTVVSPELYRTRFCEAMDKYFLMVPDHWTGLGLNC

Assay [2] concerns the target T1, PIKFYVE. Description: PIKFYVE assay (luciferase ADP-Glo kinase assay, Promega). The class given is biochemical. In short, it runs like this: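 ADP generated in the kinase reaction was detected by ADP-Glo luminescence (luciferase).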
In general terms: ADP-Glo first removes unused ATP, then detects ADP through luciferase.

`Cc1cccc(-c2ccn(-c3cc(N4CCOCC4)nc(OCCc4cnn(C)c4)n3)n2)n1` [Compound 190, 4-(2-(2-(1-methyl-1H-pyrazol-4-yl)ethoxy)-6-(3-(6-methylpyridin-2-yl)-1H-pyrazol-1-yl)pyrimidin-4-yl)morpholine] registered an EC50 in assay [1] of 100 to 500 nM. The IC50 in assay [2] (Table 3) lay in the range of 3 to 10 nM.

Compound `Cn1cc(CCOc2nc(N3CCOCC3)cc(-n3ccc(COc4ccccc4)n3)n2)cn1` [Compound 128, 4-(2-(2-(1-methyl-1H-pyrazol-4-yl)ethoxy)-6-(3-(phenoxymethyl)-1H-pyrazol-1-yl)pyrimidin-4-yl)morpholine] yielded an EC50 in assay [1] of 500 to 5000 nM. In assay [2] (Table 3), this compound came in with an IC50 of 3 to 10 nM.

`CC[C@H](OC)c1nc(N2CCOCC2)cc(-n2ccc(-c3cccc(C)c3)n2)n1` (single isomer, unassigned) [Compound 323] had an EC50 in assay [1] of 500 to 5000 nM. Moreover, the IC50 in assay [2] (Table 3) is 10 to 100 nM.

The compound `COCc1cc(-c2ccccc2)n(-c2cc(N3CCOCC3)nc(OCCc3cnn(C)c3)n2)n1` [Compound 77, 4-(6-(3-(methoxymethyl)-5-phenyl-1H-pyrazol-1-yl)-2-(2-(1-methyl-1H-pyrazol-4-yl)ethoxy)pyrimidin-4-yl)morpholine] came in with an EC50 in assay [1] of 500 to 5000 nM. Besides, the IC50 in assay [2] (Table 2) lay within 5 to 100 nM.

Turning to `Cn1cc(CCOc2nc(N3CCOCC3)cc(-n3ccc(OCc4ccccc4F)n3)n2)cn1` [Compound 129, 4-(6-(3-((2-fluorobenzyl)oxy)-1H-pyrazol-1-yl)-2-(2-(1-methyl-1H-pyrazol-4-yl)ethoxy)pyrimidin-4-yl)morpholine], in assay [1], the EC50 lay in the range of 100 to 500 nM. This compound displayed an IC50 in assay [2] (Table 3) of 3 to 10 nM.

For the compound `CO[C@H](CO)c1nc(N2CCOCC2)cc(-n2nc(-c3cccc(C)c3)cc2C)n1` [Compound 225, (S)-2-methoxy-2-(4-(5-methyl-3-(m-tolyl)-1H-pyrazol-1-yl)-6-morpholinopyrimidin-2-yl)ethan-1-ol], the EC50 in assay [1] was in the range of 100 to 500 nM. Besides, in assay [2] (Table 3), the IC50 lay in the range of 3 to 10 nM.

In assay [1], `Cc1cc(-c2c[nH]c3ccccc23)nn1-c1cc(N2CCOCC2)nc(C2COCCO2)n1` (single isomer, unassigned) [Compound 345] gave an EC50 below 20 nM. This compound displayed an IC50 in assay [2] (Table 3) below 3 nM.

`Cc1cc(-c2c[nH]c3ccccc23)nn1-c1cc(N2CCOCC2)nc(C2COCCO2)n1` (single isomer, unassigned) [Compound 344] returned an EC50 in assay [1] below 20 nM. Besides, the IC50 in assay [2] (Table 3) was below 3 nM.

As for `COC(C)(C)c1nc(N2CCOCC2)cc(-n2ccc(-c3cccc(C)c3)n2)n1` [Compound 347, 4-(2-(2-methoxypropan-2-yl)-6-(3-(m-tolyl)-1H-pyrazol-1-yl)pyrimidin-4-yl)morpholine], the EC50 in assay [1] lay within 100 to 500 nM. In assay [2] (Table 3), the IC50 lay in the range of 3 to 10 nM.

Regarding `Cc1cccc(-c2ccn(-c3cc(N4CCOCC4)nc([C@@H]4CCCO4)n3)n2)c1` (single isomer, unassigned) [Compound 328], the EC50 in assay [1] is above 5000 nM. The IC50 in assay [2] (Table 3) was in the range of 3 to 10 nM.

`Cc1cccc(-c2ccn(-c3cc(N4CCOCC4)nc(CCc4ncccn4)n3)n2)c1` [Compound 43]: in assay [1], the EC50 is 20 to 100 nM. The compound also gave an IC50 in assay [2] (Table 2) below 5 nM.

As for `Cc1cccc(-c2cc([C@H](C)O)n(-c3cc(N4CCOCC4)nc(OCCc4cnn(C)c4)n3)n2)c1` (single isomer, unassigned) [Compound 313], the EC50 in assay [1] was below 20 nM. Further, the IC50 in assay [2] (Table 3) is below 3 nM.

Regarding `COc1cccc(-c2ccn(-c3cc(N4CCOCC4)nc([C@H](CO)OC)n3)n2)c1` [Compound 263, (R)-2-methoxy-2-(4-(3-(3-methoxyphenyl)-1H-pyrazol-1-yl)-6-morpholinopyrimidin-2-yl)ethan-1-ol], the EC50 in assay [1] lay within 100 to 500 nM. Besides, in assay [2] (Table 3), the IC50 is 10 to 100 nM.

Regarding `CO[C@@H](CO)c1nc(N2CCOCC2)cc(-n2ccc(-c3cccc4ncsc34)n2)n1` [Compound 275, (R)-2-(4-(3-(benzo[d]thiazol-7-yl)-1H-pyrazol-1-yl)-6-morpholinopyrimidin-2-yl)-2-methoxyethan-1-ol], the EC50 in assay [1] was above 5000 nM. In assay [2] (Table 3), the IC50 was 100 to 5000 nM.

For the compound `Cc1cccc(-c2ccn(-c3cc(N4CCOCC4)nc([C@H]4C[C@@H](O)CO4)n3)n2)c1` [Compound 331, (3R,5R)-5-(4-morpholino-6-(3-(m-tolyl)-1H-pyrazol-1-yl)pyrimidin-2-yl)tetrahydrofuran-3-ol], the EC50 in assay [1] lay within 100 to 500 nM. In assay [2] (Table 3), this compound gave an IC50 of 3 to 10 nM.

In turn, `CCO[C@H](CO)c1nc(N2CCOCC2)cc(-n2ccc(-c3cccc(C)c3)n2)n1` (single isomer, unassigned) [Compound 311] gave an EC50 in assay [1] of 100 to 500 nM. Further, in assay [2] (Table 3), the IC50 lay in the range of 3 to 10 nM.

The compound `Cc1cccc(-c2ccn(-c3cc(N4CCOCC4)nc(OCC4(C)COC4)n3)n2)c1` [Compound 176, 4-(2-((3-methyloxetan-3-yl)methoxy)-6-(3-(m-tolyl)-1H-pyrazol-1-yl)pyrimidin-4-yl)morpholine] gave a 50% effective concentration (EC50) in assay [1] of 100 to 500 nM. Besides, the IC50 in assay [2] (Table 3) was below 3 nM.

Take `Cc1cccc(-c2ccn(-c3cc(N4CCOCC4)nc(OCc4ccn(CCN(C)C)n4)n3)n2)c1` [Compound 238, N,N-dimethyl-2-(3-(((4-morpholino-6-(3-(m-tolyl)-1H-pyrazol-1-yl)pyrimidin-2-yl)oxy)methyl)-1H-pyrazol-1-yl)ethan-1-amine]: the EC50 in assay [1] was in the range of 100 to 500 nM. The compound further gave an IC50 in assay [2] (Table 3) below 3 nM.

Regarding `Cc1cccc(-c2ccn(-c3cc(N4CCOCC4)nc(NCCO)n3)n2)c1` [Compound 208, 2-((4-morpholino-6-(3-(m-tolyl)-1H-pyrazol-1-yl)pyrimidin-2-yl)amino)ethan-1-ol], the EC50 in assay [1] lay in the range of 20 to 100 nM. Besides, the IC50 in assay [2] (Table 3) lay within 3 to 10 nM.

Compound `Cn1cc(CCOc2nc(Oc3cc(-c4ccccc4)[nH]n3)cc(N3CCOCC3)n2)cn1` [Compound 215, 4-(2-(2-(1-methyl-1H-pyrazol-4-yl)ethoxy)-6-((5-phenyl-1H-pyrazol-3-yl)oxy)pyrimidin-4-yl)morpholine] came in with an EC50 in assay [1] of 500 to 5000 nM. The compound further registered an IC50 in assay [2] (Table 3) of 10 to 100 nM.

In turn, `COc1nc(N2CCOCC2)cc(-n2ccc(-c3cccc(C)c3)n2)n1` [Compound 59, 4-(2-methoxy-6-(3-(m-tolyl)-1H-pyrazol-1-yl)pyrimidin-4-yl)morpholine] came in with an EC50 in assay [1] of 20 to 100 nM. Further, the IC50 in assay [2] (Table 2) lay in the range of 5 to 100 nM.

As to `CO[C@H](CO)c1nc(N2CCOCC2)cc(-n2ccc(-c3cccc4[nH]ccc34)n2)n1` [Compound 268, (S)-2-(4-(3-(1H-indol-4-yl)-1H-pyrazol-1-yl)-6-morpholinopyrimidin-2-yl)-2-methoxyethan-1-ol], the EC50 in assay [1] lay within 500 to 5000 nM. Also, in assay [2] (Table 3), the IC50 lay in the range of 10 to 100 nM.

As to `Cn1cc(CCOc2nc(N3CCOCC3)cc(-n3ccc(C(=O)O)n3)n2)cn1` [Compound 178, 1-(2-(2-(1-methyl-1H-pyrazol-4-yl)ethoxy)-6-morpholinopyrimidin-4-yl)-1H-pyrazole-3-carboxylic acid], the EC50 in assay [1] was above 5000 nM. For the same compound, in assay [2] (Table 3), the IC50 is 100 to 5000 nM.

In the case of `Cc1cccc(-c2ccn(-c3cc(N4CCOCC4)nc(OCCc4ccnn4C)n3)n2)c1` [Compound 55, 4-(2-(2-(1-methyl-1H-pyrazol-5-yl)ethoxy)-6-(3-(m-tolyl)-1H-pyrazol-1-yl)pyrimidin-4-yl)morpholine], in assay [1], the EC50 fell in the range of 20 to 100 nM. In assay [2] (Table 2), this compound showed an IC50 below 5 nM.

`Cc1cccc(-c2ccn(-c3cc(N4CCOCC4)nc(/C=C/c4cnn(C)c4)n3)n2)c1` [Compound 304, (E)-4-(2-(2-(1-methyl-1H-pyrazol-4-yl)vinyl)-6-(3-(m-tolyl)-1H-pyrazol-1-yl)pyrimidin-4-yl)morpholine]: the EC50 in assay [1] was in the range of 20 to 100 nM. The IC50 in assay [2] (Table 3) lay in the range of 3 to 10 nM.

`Cc1cccc(-c2ccn(-c3cc(N4CCOCC4)nc(OCc4ncccc4F)n3)n2)c1` [Compound 95, 4-(2-((3-fluoropyridin-2-yl)methoxy)-6-(3-(m-tolyl)-1H-pyrazol-1-yl)pyrimidin-4-yl)morpholine]: in assay [1], the EC50 lay in the range of 20 to 100 nM. This compound also displayed an IC50 in assay [2] (Table 3) of 3 to 10 nM.

In the case of `CO[C@H](CO)c1nc(N2CCOCC2)cc(-n2ccc(-c3cn(C)c4ccccc34)n2)n1` (single isomer, unassigned) [Compound 320], the EC50 in assay [1] lay in the range of 20 to 100 nM. In addition, in assay [2] (Table 3), the IC50 lay within 3 to 10 nM.

Compound `Cc1cccc(-c2ccn(-c3cc(N4CCOCC4)nc(OCCN(C)c4ccccc4)n3)n2)c1` [Compound 100, N-methyl-N-(2-((4-morpholino-6-(3-(m-tolyl)-1H-pyrazol-1-yl)pyrimidin-2-yl)oxy)ethyl)aniline] had a concentration giving a half-maximal response (EC50) in assay [1] of 100 to 500 nM. This compound also registered an IC50 in assay [2] (Table 3) of 3 to 10 nM.

In assay [1], `CCc1cccc(-c2ccn(-c3cc(N4CCOCC4)nc([C@H](CO)OC)n3)n2)c1` [Compound 273, (R)-2-(4-(3-(3-ethylphenyl)-1H-pyrazol-1-yl)-6-morpholinopyrimidin-2-yl)-2-methoxyethan-1-ol] showed an EC50 of 100 to 500 nM. The IC50 in assay [2] (Table 3) fell in the range of 3 to 10 nM.

As for `Cc1cccc(-c2cc(CN(C)C)n(-c3cc(N4CCOCC4)nc(OCC4(C)COC4)n3)n2)c1` [Compound 206, N,N-dimethyl-1-(1-(2-((3-methyloxetan-3-yl)methoxy)-6-morpholinopyrimidin-4-yl)-3-(m-tolyl)-1H-pyrazol-5-yl)methanamine], the EC50 in assay [1] was 500 to 5000 nM. The compound also registered an IC50 in assay [2] (Table 3) of 3 to 10 nM.

As to `Cc1cccc(-c2ccn(-c3cc(N4CCOCC4)nc([C@H]4COCCO4)n3)n2)c1` (single isomer, unassigned) [Compound 325], the EC50 in assay [1] fell in the range of 500 to 5000 nM. In assay [2] (Table 3), the IC50 lay in the range of 10 to 100 nM.

Take `Cc1cccc(-c2ccn(-c3cc(N4CCOCC4)nc(OCc4cccnn4)n3)n2)c1` [Compound 54, 4-(2-(pyridazin-3-ylmethoxy)-6-(3-(m-tolyl)-1H-pyrazol-1-yl)pyrimidin-4-yl)morpholine]: in assay [1], the EC50 is 20 to 100 nM. Besides, the IC50 in assay [2] (Table 2) was below 5 nM.

`CNc1nc(N2CCOCC2)cc(-n2nc(-c3ccccc3)cc2C)n1` [Compound 85]: the EC50 in assay [1] was in the range of 500 to 5000 nM. In assay [2] (Table 2), this compound came in with an IC50 of 101 to 1000 nM.
